We go through two compounds from patent US20140350050A1, “PYRIDINE COMPOUNDS AS INHIBITORS OF KINASE” (TELIGENE LTD., priority 2011, published 2014).

For orientation: IC50 means the midpoint of a concentration-inhibition curve.

In data set [1] the target is T1, BAF3-EML4-ALK stable cell line (Homo sapiens, UniProt Q9UM73).
T1 construct: fused on or other part: Q9HC35 (Echinoderm microtubule-associated protein-like 4)
In words: BAF3-EML4-ALK cell assay (MTT cell proliferation). In kind it is cell-based. As to conditions: 72 hours, read-out: BAF3-EML4-ALK Cell (IC50 grading). On the procedure: BAF3-EML4-ALK Cell Assay:
A method of establishing BAF3-EML4-ALK stable cell line: Transfer 5×10^6 BAF3 cells to a new tube, pellet the cells, and remove PBS by aspiration.; Resuspend the cells in 1 ml electroporation buffer, this provides 5×10^6 of cells; Transfer 200 μl of cell suspension to EP tube, add 5 ug DNA, flip and place it on ice for 10 min; Pipet the 200 μl cell suspension into 2 mm electroporation cuvette; Place the cuvette into shockpod, close the lid, and press the PULSE button; Set parameters: Expentional decay pulse: VOL=200 V; CAP=900 uF, RES=1000Ω; Transfer all cells from electroporation cuvette to 6 well plate, adding 2 ml DMEMF12 containing 5 ng/ml IL3, 24 h later, replace the medium with DMEM F12 containing 2 μg/ml blasticidin S and 5 ng/ml IL3, maintain for 3 days; change the medium with DMEM F12 containing 2 ug/ml blasticidin S and 2.5 ng/ml IL3, maintain 3 days; change the medium with DMEM F12 containing 2 ug/Ml blasticidin S, maintain to culture.
MTT Cell proliferation assay: 5×10^3 per well cell with 100 μl medium was seeded in 96-well plate; 24 hours later, 100 μl fresh medium with various concentration of compounds; After the cells were treated by compounds for 72 hours, add 20 μl MTT (5 mg/ml) into each wells; The plate is incubated at 37° C. for 4 hours; Centrifuge the plate at 800 g for 10 mins, Aspirated the medium, add 150 μl DMSO into each well. Shake plates gently for 10 mins, Measure the absorbance at 570 nm on plate reader; IR=(WC−WT)/WC.

The target of the next data set is ALK kinase (Homo sapiens, UniProt Q9UM73). Description: ALK kinase assay. In kind it is biochemical. The protocol: An in vitro assay which determines the ability of a test compound to inhibit ALK kinase. a) kinase-tagged T7 phage strains were prepared in an E. coli host derived from the BL21 strain. E. coli were grown to log-phase and infected with T7 phage and incubated with shaking at 32° C. until lysis. The lysates were centrifuged and filtered to remove cell debris. The remaining kinases were produced in HEK-293 cells and subsequently tagged with DNA for qPCR detection. […] The liganded beads were blocked with excess biotin and washed with blocking buffer (SeaBlock (Pierce), 1% BSA, 0.05% Tween 20, 1 mM DTT) to remove unbound ligand and to reduce non-specific binding. […] All reactions were performed in polystyrene 96-well plates in a final volume of 0.135 ml. […] The kinase concentration in the eluates was measured by qPCR. […]
b) An alternative method to conduct the kinase assay with the following condition and procedure: Reagent: Base Reaction buffer; 20 mM Hepes (pH 7.5), 10 mM MgCl2, 1 mM EGTA, 0.02% Brij35, 0.02 mg/ml BSA, 0.1 mM Na3VO4, 2 mM DTT, 1% DMSO.
1. Preparing indicated substrate in freshly prepared Base Reaction Buffer
2. Delivering any required cofactors to the substrate solution above
3. Delivering indicated kinase into the substrate solution and gently mix
4. Delivering compounds in DMSO into the kinase reaction mixture
5. Delivering ^33P-ATP (specific activity 0.01 μCi/μl final) into the reaction mixture to initiate the reaction.
6. Incubating kinase reaction for 120 min. at room temperature
7. Reactions are spotted onto P81 ion exchange paper (Whatman #3698-915)
8. Washing filters extensively in 0.75% Phosphoric acid. […]
c) An alternative method to conduct the kinase assay with the following condition and procedure: The assay was performed using Kinase-Glo Plus luminescence kinase assay kit (Promega). It measures kinase activity by quantitating the amount of ATP remaining in solution following a kinase reaction. The luminescent signal from the assay is correlated with the amount of ATP present and is inversely correlated with the amount of kinase activity.
The compound were diluted in 10% DMSO and 5 μl of the dilution was added to a 50 μl reaction so that the final concentration of DMSO is 1% in all of reactions. All of the enzymatic reactions were conducted at 30° C. for 40 minutes. The 50 μl reaction mixture contains 40 mM Tris, pH 7.4, 10 mM MgCl2, 0.1 mg/ml BSA, 1 mM DTT, 0.2 mg/ml substrate peptide, 10 μM ATP and ALK (Table 2.3.1). After the enzymatic reaction, 50 μl of Kinase-Glo Plus Luminescence kinase assay solution (Promega) was added to each reaction and incubate the plate for 5 minutes at room temperature. Luminescence signal was measured using a BioTek Synergy 2 microplate reader. ALK activity assays were performed in duplicate at each concentration. The luminescence data were analyzed using the computer software, Graphpad Prism. The difference between luminescence intensities in the absence of ALK (Lut) and in the presence of ALK (Luc) was defined as 100% activity (Lut−Luc). Using luminescence signal (Lu) in the presence of the compound, % activity was calculated as % activity={(Lut−Lu)/(Lut−Luc)}×100%, where Lu=the luminescence intensity in the presence of the compound (all percent activities below zero were shown zero in the table). The values of % activity versus a series of compound concentrations were then plotted using non-linear regression analysis of Sigmoidal dose-response curve generated with the equation Y=B+(T−B)/1+10^((Log EC50−X)×Hill Slope), where Y=percent activity, B=minimum percent activity, T=maximum percent activity, X=logarithm of compound and Hill Slope=slope factor or Hill coefficient. The IC50 value was determined by the concentration causing a half-maximal percent activity.

Data set [2] concerns EML4-ALK-BAF3 cell line xenograft. The data set is classed as in vivo. The conditions noted are these: 40 mg/kg oral gavage once daily. An excerpt:
A representative protocol for the in vivo experiment is as followed to establish the subcutaneous EML4-ALK-BAF3 cell line xenograft model in nude mice and to evaluate the in vivo therapeutic efficacy of the compounds: Animals: Male Balb/c nude mice (6˜8 weeks old) were obtained from SLAC Laboratory Animal, Shanghai, China. Animals were maintained under SPF conditions in sterile filter top cages and housed on HEPA-filtered ventilated racks. Animals received sterile rodent chow and water ad libitum. Cell line: BAF3-EML4-ALK stable cell line, the BAF3 cell which could expressed fusion oncogene EML4-ALK. S.c. Xenograft Models in Athymic Mice: Cells for implantation into athymic mice were harvested and pelleted by centrifugation at 1200 r/min for 5 min. Cells were washed once and resuspended in sterile PBS buffer with 5×10^6 in 200 μl. Then cells were implanted s.c. into the right scapular region of each mouse and allowed to grow to 200˜300 mm^3 before the administration of compound. Preparation of the Dose Formulation: each compound was suspensioned in 0.5% CMC-Na. Randomization: When tumor volumes approach 200˜300 mm^3, the mice will be randomized into 5 groups according to the tumor volume. The day will be denoted as D1 and the treatments will be started at this day. Administered: Dose will be administered with oral gavage needle once daily for number of days. Treatment of compounds administered in 0.5% CMC-Na by p.o. gavage was initiated when tumors were 200˜300 mm^3 in volume. Observations: After inoculation, the animals will be checked daily for morbidity and mortality. At the time of routine monitoring, the animals will be checked for any effects of tumor growth and treatments on normal behavior such as mobility, body weight gain/loss (body weights will be measured twice weekly or every other day), eye/hair matting and any other abnormal effect. Death and observed clinical signs will be recorded on the basis of the numbers of animals within each subset. Tumor Size Measurements: Tumor volume was determined by measurement with electronic vernier calipers every 3 days and tumor volume was calculated as the product of its length×width^2×0.5. Effect studies: Tumor volume was expressed on indicated days as the mean tumor volume ±SD. […] Significant differences between the treated versus the control groups (p<0.05) were determined using t test. At study endpoint, after blood collection, mice were practiced euthanasia by cervical dislocation, the tumor tissue was collected first, then abdominal cavity was cut open, liver and spleen were excised, then weight after the gallblader was removed respectively. Organ weight and Organ/body weight ratios between the treated versus the control groups were compared. Ratios was calculated as follows: Ratios=Organ weight/(body weight-tumor weight). Both organ weight and Organ/body weight ratios were also expressed as mean±SD, and significant differences between the treated versus the control groups (p<0.05) were determined using t test.

The mark [3] stands for this setting: ALK kinase assay, read-out: ALK (IC50 grading).

Read-outs that look alike come from different tables or passages of the source.

ALK kinase, sequence (Q9UM73 19-1620): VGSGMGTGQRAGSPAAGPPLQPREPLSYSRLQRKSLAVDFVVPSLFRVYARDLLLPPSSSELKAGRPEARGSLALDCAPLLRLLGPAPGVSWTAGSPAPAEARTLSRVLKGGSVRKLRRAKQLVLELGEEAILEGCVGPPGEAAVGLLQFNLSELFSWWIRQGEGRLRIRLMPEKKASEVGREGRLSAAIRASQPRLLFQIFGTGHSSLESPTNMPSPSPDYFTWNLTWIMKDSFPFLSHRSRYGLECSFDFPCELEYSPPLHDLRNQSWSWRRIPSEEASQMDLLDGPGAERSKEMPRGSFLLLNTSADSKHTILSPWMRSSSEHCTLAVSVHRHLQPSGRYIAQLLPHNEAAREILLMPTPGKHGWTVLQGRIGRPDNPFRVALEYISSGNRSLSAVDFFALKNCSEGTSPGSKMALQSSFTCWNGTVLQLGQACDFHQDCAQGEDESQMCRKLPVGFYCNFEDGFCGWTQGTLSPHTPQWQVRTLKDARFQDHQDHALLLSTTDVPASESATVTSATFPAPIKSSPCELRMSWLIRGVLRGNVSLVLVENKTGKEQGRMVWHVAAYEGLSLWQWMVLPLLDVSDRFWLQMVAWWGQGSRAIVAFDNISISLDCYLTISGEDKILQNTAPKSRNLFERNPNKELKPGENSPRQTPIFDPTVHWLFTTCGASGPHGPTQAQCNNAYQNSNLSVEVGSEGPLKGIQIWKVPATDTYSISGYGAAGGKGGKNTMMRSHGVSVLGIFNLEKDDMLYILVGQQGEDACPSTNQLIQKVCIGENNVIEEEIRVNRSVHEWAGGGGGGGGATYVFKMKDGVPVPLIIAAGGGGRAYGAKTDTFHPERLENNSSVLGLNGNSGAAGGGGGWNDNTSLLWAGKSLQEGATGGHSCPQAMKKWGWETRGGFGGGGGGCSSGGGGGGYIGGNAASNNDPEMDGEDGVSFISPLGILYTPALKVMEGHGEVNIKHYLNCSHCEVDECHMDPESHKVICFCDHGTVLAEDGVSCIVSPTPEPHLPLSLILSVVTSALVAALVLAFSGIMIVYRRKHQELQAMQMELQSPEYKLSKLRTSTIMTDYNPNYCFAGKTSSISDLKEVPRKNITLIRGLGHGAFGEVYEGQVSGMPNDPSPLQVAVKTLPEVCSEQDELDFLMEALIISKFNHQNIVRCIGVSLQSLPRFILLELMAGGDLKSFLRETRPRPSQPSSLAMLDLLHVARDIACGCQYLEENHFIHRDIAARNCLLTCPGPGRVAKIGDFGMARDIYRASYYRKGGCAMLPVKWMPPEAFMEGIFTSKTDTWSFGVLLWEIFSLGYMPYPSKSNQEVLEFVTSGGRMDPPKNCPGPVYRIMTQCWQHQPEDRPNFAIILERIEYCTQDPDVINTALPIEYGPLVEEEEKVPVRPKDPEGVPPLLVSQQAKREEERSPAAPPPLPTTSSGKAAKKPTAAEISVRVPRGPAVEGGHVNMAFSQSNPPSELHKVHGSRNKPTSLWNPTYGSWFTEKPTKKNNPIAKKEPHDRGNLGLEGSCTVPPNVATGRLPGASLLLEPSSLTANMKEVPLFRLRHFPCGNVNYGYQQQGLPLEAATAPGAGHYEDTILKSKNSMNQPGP
T1 sequence (Q9UM73 whole entry, change not shown, the tested form may be a part): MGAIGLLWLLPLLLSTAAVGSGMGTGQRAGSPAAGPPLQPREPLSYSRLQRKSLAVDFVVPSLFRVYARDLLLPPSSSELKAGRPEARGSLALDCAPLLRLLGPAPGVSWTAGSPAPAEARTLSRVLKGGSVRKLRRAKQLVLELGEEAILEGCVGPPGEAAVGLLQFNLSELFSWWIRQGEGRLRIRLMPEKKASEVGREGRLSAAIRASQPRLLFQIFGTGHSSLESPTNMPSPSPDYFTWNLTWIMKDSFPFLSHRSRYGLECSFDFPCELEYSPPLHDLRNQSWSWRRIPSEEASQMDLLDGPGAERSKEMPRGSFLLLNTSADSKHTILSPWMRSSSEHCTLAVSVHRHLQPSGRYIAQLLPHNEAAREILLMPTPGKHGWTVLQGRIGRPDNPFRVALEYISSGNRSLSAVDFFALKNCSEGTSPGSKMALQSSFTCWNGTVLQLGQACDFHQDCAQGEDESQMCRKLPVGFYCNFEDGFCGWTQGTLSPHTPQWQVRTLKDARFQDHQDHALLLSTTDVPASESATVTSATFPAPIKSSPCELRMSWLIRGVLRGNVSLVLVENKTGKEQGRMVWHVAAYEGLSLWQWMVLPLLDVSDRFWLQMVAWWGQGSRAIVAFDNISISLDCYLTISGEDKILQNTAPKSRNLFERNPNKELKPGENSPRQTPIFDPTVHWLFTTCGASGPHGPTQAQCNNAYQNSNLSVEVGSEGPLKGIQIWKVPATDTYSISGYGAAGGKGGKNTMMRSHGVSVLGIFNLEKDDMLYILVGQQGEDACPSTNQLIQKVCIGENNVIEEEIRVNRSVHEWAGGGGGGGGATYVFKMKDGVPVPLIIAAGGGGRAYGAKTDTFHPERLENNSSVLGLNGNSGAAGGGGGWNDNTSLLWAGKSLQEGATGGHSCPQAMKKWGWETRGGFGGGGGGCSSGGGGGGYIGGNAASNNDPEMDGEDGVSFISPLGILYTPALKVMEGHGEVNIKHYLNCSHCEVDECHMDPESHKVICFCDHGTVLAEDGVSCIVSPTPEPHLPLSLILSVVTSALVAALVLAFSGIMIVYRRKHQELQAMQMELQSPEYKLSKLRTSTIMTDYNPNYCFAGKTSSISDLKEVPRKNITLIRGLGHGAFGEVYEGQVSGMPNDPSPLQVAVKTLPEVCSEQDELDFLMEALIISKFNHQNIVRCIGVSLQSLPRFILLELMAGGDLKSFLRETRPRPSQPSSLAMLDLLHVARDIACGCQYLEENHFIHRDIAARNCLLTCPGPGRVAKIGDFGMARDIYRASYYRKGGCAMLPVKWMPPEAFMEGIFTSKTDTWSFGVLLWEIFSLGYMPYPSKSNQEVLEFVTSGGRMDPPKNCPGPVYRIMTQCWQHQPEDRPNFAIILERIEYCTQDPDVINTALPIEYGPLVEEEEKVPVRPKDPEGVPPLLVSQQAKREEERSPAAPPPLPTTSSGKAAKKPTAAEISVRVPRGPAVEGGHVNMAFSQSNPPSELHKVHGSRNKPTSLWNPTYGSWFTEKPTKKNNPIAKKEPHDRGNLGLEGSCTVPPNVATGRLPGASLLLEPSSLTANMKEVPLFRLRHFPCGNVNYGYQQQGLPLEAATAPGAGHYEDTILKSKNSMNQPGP

Turning to `CC(=O)Nc1ncc(-c2cnn(C3CCNCC3)c2)cc1O[C@H](C)c1c(Cl)ccc(F)c1Cl` [Compound 18, (R)—N-(3-(1-(2,6-dichloro-3-fluorophenyl)ethoxy)-5-(1-(piperidin-4-yl)-1H-pyrazol-4-yl)pyridin-2-yl)acetamide], the GI50 in data set [1] was at most 100 nM. Besides, the IC50 at ALK kinase (setting [3]) is at most 100 nM. Besides, the “liver weight at the end of the study” value in data set [2] (control group 1.523) is 1.318 gram. Besides, the “Tumor growth inhibition (TGI, %)” value stood at 24.11% in data set [2] (Table B, day 4); 38.91% in data set [2] (Table B, day 7); 39.08% in data set [2] (Table B, day 9).

As to `[2H]C([2H])([2H])N1CCC(n2cc(-c3cnc(N)c(O[C@H](C)c4c(Cl)ccc(F)c4Cl)c3)cn2)CC1` [Compound 20, (R)-3-(1-(2,6-dichloro-3-fluorophenyl)ethoxy)-5-(1-(1-d3-methylpiperidin-4-yl)-1H-pyrazol-4-yl)pyridin-2-amine], the GI50 in data set [1] was at most 100 nM. The figures for the IC50 at ALK kinase (setting [3]) and on ALK kinase (read-out: IC50 in the ALK kinase assay) were at most 100 nM and 2.6 nM, respectively. For the same compound, the “Tumor growth inhibition (TGI, %)” value in data set [2] (Table C, day 2) is on record as 29.80%; in data set [2] (Table C, day 5), 58.20%; in data set [2] (Table C, day 8), 71.73%; in data set [2] (Table C, day 11), 90.29%; in data set [2] (Table C, day 14), 92.09%.
